Structures are written as SMILES.

The subject of one assay is MCF7. As to the kind of experiment: Cytotoxic activity against human MCF7 cells. Type of assay: functional, cell-based.
A short description of assay [1]: Cytotoxic activity against human SGC7901 cells. Type of assay: functional, cell-based, SGC-7901.
For another assay, the system named is SW1990. As to the kind of experiment: Cytotoxic activity against human SW1990 cells. Type of assay: functional, cell-based.
In a further assay the test system is HeLa. The assay is described as follows: Cytotoxic activity against human HeLa cells. Type of assay: functional, cell-based.
In the next assay the test system is Huh-7. As to the kind of experiment: Cytotoxic activity against human HuH7 cells. Type of assay: functional, cell-based.
The test system of the next assay is DU-145. As to the kind of experiment: Cytotoxic activity against human DU145 cells. Type of assay: functional, cell-based.
The next assay deals with NCI-H460. As to the kind of experiment: Cytotoxic activity against human NCI-H460 cells. Type of assay: functional, cell-based.
Setting [2] is: Homo sapiens, MCF7, read-out: IC50.
Setting [3] is: Homo sapiens, SGC-7901, read-out: IC50.
Setting [4] is: Homo sapiens, SW1990, read-out: IC50.
Where [5] appears, read: Homo sapiens, HeLa, read-out: IC50.
Setting [6] is: Homo sapiens, Huh-7, read-out: IC50.
The mark [7] stands for this setting: Homo sapiens, DU-145, read-out: IC50.
The mark [8] stands for this setting: Homo sapiens, NCI-H460, read-out: IC50.

In general, IC50 refers to the concentration needed to halve the response being measured. For `CC(=O)OCCOC(=O)[C@@H](CS[C@H]1CCC[C@H](C)OC(=O)Cc2cc(O)cc(O)c2C(=O)C1)OC(C)=O`, the IC50 in the assay with MCF7 (setting [2]) turned out to be 4.7 µM; in assay [1] (setting [3]), 6.8 µM; in the assay with SW1990 (setting [4]) it was 11 µM; with HeLa (setting [5]), 8 µM; in the assay with Huh-7 (setting [6]), 5.5 µM; in the assay on DU-145 (setting [7]), 7 µM. For the same compound, the IC50 in the assay with NCI-H460 (setting [8]) was found to be 4.6 µM.
On to `C[C@H]1CCC[C@H](SC[C@@H](O)C(=O)O)CC(=O)c2c(O)cc(O)cc2CC(=O)O1`, for which the concentration for half-maximal inhibition (IC50) in the assay on MCF7 (setting [2]) was found to be 4.4 µM; in assay [1] (setting [3]) it was 8.5 µM; with SW1990 (setting [4]), 11 µM; with HeLa (setting [5]), 6 µM; with Huh-7 (setting [6]), 5.1 µM; in the assay with DU-145 (setting [7]), 6 µM. Moreover, the 50% inhibitory concentration (IC50) with NCI-H460 (setting [8]) stood at 7 µM.
Regarding `C[C@H]1CCC/C=C/C(=O)c2c(O)cc(O)cc2CC(=O)O1` [DEHYDROCURVULARIN], the IC50 came out at 4 µM with MCF7 (setting [2]); 6 µM in assay [1] (setting [3]); 10 µM in the assay on SW1990 (setting [4]); 6 µM in the assay with HeLa (setting [5]); 5 µM in the assay on Huh-7 (setting [6]); 6 µM with DU-145 (setting [7]). Besides, the IC50 in the assay with NCI-H460 (setting [8]) was 5 µM.
Turning to `CC(=O)O[C@H]1C(=O)[C@@]2(C)[C@H]([C@H](OC(=O)c3ccccc3)[C@]3(O)C[C@H](OC(=O)[C@H](O)[C@@H](NC(=O)c4ccccc4)c4ccccc4)C(C)=C1C3(C)C)[C@]1(OC(C)=O)CO[C@@H]1C[C@@H]2O` [PACLITAXEL], in the assay with HeLa (setting [5]), the 50% inhibitory concentration (IC50) came out at 12 µM.
Turning to `COc1cccc2c1C(=O)c1c(O)c3c(c(O)c1C2=O)C[C@@](O)(C(=O)CO)C[C@@H]3O[C@H]1C[C@H](N)[C@H](O)[C@H](C)O1` [DOXORUBICIN], the IC50 in assay [1] (setting [3]) worked out at 0.011 µM.
Take `CC1CCCCCC(=O)c2c(O)cc(O)cc2CC(=O)O1` (centres undefined) [CURVULARIN]: the concentration for half-maximal inhibition (IC50) entry (in the assay with MCF7 (mcf7); in assay [1] (sgc-7901); in the assay with SW1990 (sw1990); in the assay with HeLa (hela); in the assay with Huh-7 (huh-7); in the assay with DU-145 (du-145)) was “Not Active” each time. Further, in the assay with NCI-H460 (nci-h460), the half-maximal inhibitory concentration (IC50) entry is listed as “Not Active”.
As to `O=c1[nH]cc(F)c(=O)[nH]1` [FLUOROURACIL], the IC50 in the assay with DU-145 (setting [7]) was 3.4 µM.
Take `COC(=O)[C@H](O)CS[C@H]1CCC[C@H](C)OC(=O)Cc2cc(O)cc(O)c2C(=O)C1`: the IC50 in the assay on MCF7 (setting [2]) amounted to 4.4 µM; in assay [1] (setting [3]), 5.5 µM; in the assay on SW1990 (setting [4]), 10 µM; in the assay with HeLa (setting [5]), 6 µM; with Huh-7 (setting [6]) it was 3.9 µM; in the assay on DU-145 (setting [7]), 6 µM. Moreover, the concentration for half-maximal inhibition (IC50) in the assay on NCI-H460 (setting [8]) was found to be 3.8 µM.
As to `Nc1ccn([C@@H]2O[C@H](CO)[C@@H](O)C2(F)F)c(=O)n1` [GEMCITABINE], the half-maximal inhibitory concentration (IC50) in the assay on SW1990 (setting [4]) is 1.6 µM.

The record behind these values is ChEMBL document CHEMBL3085646, “Sulfur-containing cytotoxic curvularin macrolides from Penicillium sumatrense MA-92, a fungus obtained from the rhizosphere of the mangrove Lumnitzera racemosa” (J Nat Prod, 2013).
